A word on the LD50: it is the dose expected to kill half of the subjects tested. As a reminder, the ED50 is the dose that gives a 50% effect, or the effect in half of the subjects.

The results in this text go back to patent US3980707A, “Methylamino derivative of 2-ethylindandione-1,3 and the hydrochloride thereof” (priority 1973, dated 1976).

Molecules are shown by their SMILES. Counter-ions that a name gives are not always drawn.

Series [1] in a line: Solubility and hydrolysis in water. The conditions noted are these: hydrochlorides. Type of series: physicochemical.
The next series deals with conditioned reflexes. The series is described as follows: Influence on rate of development of conditioned reflexes (learning). The conditions noted are these: for ET50 (medium time required for learning): confidence limits in parentheses, P=0.05. Type of series: in vivo, white mice. From the text:
The influence of Metindione and Phenobarbital on learning has been studied on white mice.
(confidence limits are put in parentheses; P=0.05).

The next series has as its system electroshock. Kind of series: Thirty-day electroshock tests (habituation). Type of series: in vivo. The conditions noted are these: white mice.
A short description of series [2]: Acute toxicity (LD50, Table 1). The arrangement: species or system white rats and white mice. The conditions noted are these: in vivo, ip; confidence limits in parentheses, P = 0.05; second ED50 column of Table 1.
In series [3] the test system is seizures induced by an electroshock. Kind of series: Anticonvulsive effect in electroshock (intraperitoneal). Type of series: in vivo, white rats and white mice. As to the method: Anticonvulsive effect of Metindione in electroshock was studied on white rats and white mice on a comparison basis with the well known drug phenobarbital. Both preparations were administered by intraperitoneal injections. The results are summarized in Tabl. 1 (confidence limits are indicated in parentheses; P = 0.05).

Series [4] in a line: Extended every day administration / chronic toxicity. Type of series: in vivo.
Series [5] can be described thus: Anticonvulsive activity and toxicity, general statements. Type of series: in vivo. The conditions noted are these: compared with the conventional anticonvulsants.

As for `CCC1(Nc2ccccc2)C(=O)c2ccccc2C1=O` [2-aniline-2-ethylindandione-1,3 hydrochloride], the hydrolysis in water entry in series [1] is given as “readily hydrolyzed in water”.

Take `CCC1(NC)C(=O)c2ccccc2C1=O` [Metindione, 2-methylamino-2-ethylindandione-1,3 hydrochloride]: the “ET50 (medium time required for learning)” value in the series with conditioned reflexes (dose 1/2 of ED50 of anticonv. action) is listed as 2.4(2.1+2.6) day; with conditioned reflexes (dose 1 x ED50 of anticonv. action), 2.5(2.1+2.8) day; in the series with conditioned reflexes (dose 2 x ED50 of anticonv. action), 2.0(1.7+2.3) day; in the series with conditioned reflexes (dose 4 x ED50 of anticonv. action), 2.8(2.4+3.4) day. The “influence on rate of developing conditioned reflexes” value in the series with conditioned reflexes (mouse, in vivo) is reported as “did not influence the rate of developing conditioned reflexes”. In the series on electroshock, the “necessity to increase initial dose / habit forming reaction” value was “no necessity to increase the initial dose”. The LD50 in series [2] is 415 mg/kg. For the same compound, the ED50 in series [3] (Rattus norvegicus, ip, electroshock, confidence limits in parentheses, P = 0.05) was found to be 3.6 mg/kg. Also, in series [3] (electroshock, i.p., confidence limits in parentheses, P = 0.05), the “Protective Index (in ratio of LD50 /ED50)” value is reported as 115 (89+149). In series [3] (in vivo), the “protective index higher than that of phenobarbital” value was 14 times. For the same compound, the “anticonvulsive effect stronger than that of phenobarbital” value in series [3] (seizures induced by an electroshock, relative to phenobarbital) is around 4 times. The toxic effect result in series [4] (extended every day administration, doses 15 times higher than the therapeutical average) is recorded as “no toxic effect”. In series [4] (in vivo), the “acute and chronic toxicity” value is “low acute and a low chronic toxicity”. Further, in series [4] (in vivo), the “morphological internal organic changes” value is on record as “does not cause any morphological internal organic changes”. The “influence on normal development and growth of young animals” value in series [4] (young animals) is “no adverse influence on normal development and growth of young animals”.

On to `CCC1(NC)C(=O)c2ccccc2C1=O` [2-methylamino-2-ethylindandione-1,3 hydrochloride], for which the anticonvulsant index result in series [5] was “high anticonvulsant index”.
